Reference: US6914045B2, “Glycopeptide antibiotics” (Wyeth Holdings Corporation, priority 2001, dated 2005)
Converted amounts (≈) assume the structure as drawn. Blank lines part the entries; values can stand above or below the molecule they belong to.

Columns and labels:
Experiment in all cases: in vitro antibacterial evaluation, MIC by broth dilution
Format in all cases: cell-based
[1] = tested on: Streptococcus sp.; conditions: broth dilution, 18 hours at 35° C.
Outline: (§1)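 Test organisms, which included recent clinical isolates resistant to methicillin, penicillin and/or vancomycin, were inoculated at 5×10^5 CFU/mL into Muller-Hinton II […] containing antibiotic at 64-0.06 μg/mL. Minimum inhibitory concentrations were then read as the lowest level inhibiting growth.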

[2] = tested on: Enterococcus sp.; conditions: broth dilution, 18 hours at 35° C.
Outline: as §1

[3] = tested on: Staphylococcus sp.
Outline: as §1

[4] = tested on: Escherichia coli; conditions: 18 hours at 35° C.
Outline: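 MIC is the lowest antibiotic concentration (tested 64-0.06 μg/mL) preventing growth of a 5×10^5 CFU/mL inoculum. Determined by broth dilution in Mueller-Hinton II medium following NCCLS standard M7-A2.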

[5] = Enterococcus faecalis (ATCC 29212)
[6] = Enterococcus faecalis (GC 4552)
[7] = Enterococcus faecalis (GC 4553)
[8] = Enterococcus faecalis (GC 4554)
[9] = broth dilution, 18 hours at 35° C.
[10] = strain ATCC 29213; broth dilution, 18 hours at 35° C.
[11] = strain GC 1131; broth dilution, 18 hours at 35° C.
[12] = strain GC 4541; broth dilution, 18 hours at 35° C.
[13] = strain GC 4542; broth dilution, 18 hours at 35° C.
[14] = strain GC 4544; broth dilution, 18 hours at 35° C.
[15] = strain GC 4545; broth dilution, 18 hours at 35° C.

MIC Streptococcus agalactiae (GC 4564) [1]: >128 µg/mL | MIC Streptococcus pneumoniae (ATCC 6301) [1]: 128 µg/mL (≈ 88.2 µM) | MIC Streptococcus pneumoniae (GC 1894) [1]: 128 µg/mL (≈ 88.2 µM) | MIC Streptococcus pneumoniae (GC 4565) [1]: 128 µg/mL (≈ 88.2 µM) | MIC Streptococcus pyogenes (GC 4563) [1]: >128 µg/mL | MIC Streptococcus pneumoniae (ATCC 6301) ([1]; strain ATCC 6301): 128 µg/mL (≈ 88.2 µM) | MIC Streptococcus pneumoniae (GC 1894) ([1]; strain GC 1894): 128 µg/mL (≈ 88.2 µM) | MIC Streptococcus pyogenes (GC 4563) ([1]; strain GC 4563): >128 µg/mL | MIC Streptococcus agalactiae (GC 4564) ([1]; strain GC 4564): >128 µg/mL | MIC Streptococcus pneumoniae (GC 4565) ([1]; strain GC 4565): 128 µg/mL (≈ 88.2 µM) | MIC Enterococcus avium (GC 4558) ([2]; Enterococcus avium (GC 4558)): 128 µg/mL (≈ 88.2 µM) | MIC Enterococcus faecalis (ATCC 29212) [2, 5]: >128 µg/mL | MIC Enterococcus faecalis (GC 4552) [2, 6]: >128 µg/mL | MIC Enterococcus faecalis (GC 4553) [2, 7]: 128 µg/mL (≈ 88.2 µM) | MIC Enterococcus faecalis (GC 4554) [2, 8]: >128 µg/mL | MIC Enterococcus faecalis (GC 6189) ([2]; Enterococcus faecalis (GC 6189)): >128 µg/mL | MIC Enterococcus faecium (GC 2243) ([2]; Enterococcus faecium (GC 2243)): >128 µg/mL | MIC Enterococcus faecium (GC 4556) ([2]; Enterococcus faecium (GC 4556)): >128 µg/mL | MIC Enterococcus faecium (GC 4557) ([2]; Enterococcus faecium (GC 4557)): 128 µg/mL (≈ 88.2 µM) | MIC Enterococcus avium (GC 4558) [2]: 128 µg/mL (≈ 88.2 µM) | MIC Enterococcus faecalis (ATCC 29212) [2]: >128 µg/mL | MIC Enterococcus faecalis (GC 2242) [2]: >128 µg/mL | MIC Enterococcus faecalis (GC 2691) [2]: >128 µg/mL | MIC Enterococcus faecalis (GC 3059) [2]: >128 µg/mL | MIC Enterococcus faecalis (GC 4552) [2]: >128 µg/mL | MIC Enterococcus faecalis (GC 4553) [2]: 128 µg/mL (≈ 88.2 µM) | MIC Enterococcus faecalis (GC 4554) [2]: >128 µg/mL | MIC Enterococcus faecalis (GC 6189) [2]: >128 µg/mL | MIC Enterococcus faecium (GC 2243) [2]: >128 µg/mL | MIC Enterococcus faecium (GC 4556) [2]: >128 µg/mL | MIC Enterococcus faecium (GC 4557) [2]: 128 µg/mL (≈ 88.2 µM) | MIC Enterococcus faecalis (GC 2242) ([2]; strain GC 2242): >128 µg/mL | MIC Enterococcus faecalis (GC 2691) ([2]; strain GC 2691): >128 µg/mL | MIC Enterococcus faecalis (GC 3059) ([2]; strain GC 3059): >128 µg/mL | MIC Coagulase Negative Staphylococcus (GC 4547) [3, 9]: >128 µg/mL | MIC Coagulase Negative Staphylococcus (GC 4548) [3, 9]: >128 µg/mL | MIC Coagulase Negative Staphylococcus (GC 4549) [3, 9]: >128 µg/mL | MIC Coagulase Negative Staphylococcus (GC 4551) [3, 9]: >128 µg/mL | MIC Staphylococcus aureus-SMITH (GC 4543) [3, 9]: >128 µg/mL | MIC Staphylococcus aureus (ATCC 29213) [3, 10]: >128 µg/mL | MIC Staphylococcus aureus (GC 1131) [3, 11]: >128 µg/mL | MIC Staphylococcus aureus (GC 3051) ([3]; strain GC 3051; broth dilution, 18 hours at 35° C.): >128 µg/mL | MIC Staphylococcus aureus (GC 3053) ([3]; strain GC 3053; broth dilution, 18 hours at 35° C.): >128 µg/mL | MIC Staphylococcus aureus (GC 4541) [3, 12]: >128 µg/mL | MIC Staphylococcus aureus (GC 4542) [3, 13]: >128 µg/mL | MIC Staphylococcus aureus-SMITH (GC 4543) ([3]; strain GC 4543; broth dilution, 18 hours at 35° C.): >128 µg/mL | MIC Staphylococcus aureus (GC 4544) [3, 14]: >128 µg/mL | MIC Staphylococcus aureus (GC 4545) [3, 15]: >128 µg/mL | MIC Coagulase Negative Staphylococcus (GC 4547) ([3]; strain GC 4547; broth dilution, 18 hours at 35° C.): >128 µg/mL | MIC Coagulase Negative Staphylococcus (GC 4548) ([3]; strain GC 4548; broth dilution, 18 hours at 35° C.): >128 µg/mL | MIC Coagulase Negative Staphylococcus (GC 4549) ([3]; strain GC 4549; broth dilution, 18 hours at 35° C.): >128 µg/mL | MIC Coagulase Negative Staphylococcus (GC 4551) ([3]; strain GC 4551; broth dilution, 18 hours at 35° C.): >128 µg/mL | MIC Escherichia coli (ATCC 25922) [4]: >128 µg/mL | MIC Escherichia coli (GC 4559) [4]: >128 µg/mL | MIC Escherichia coli (GC 4560) [4]: >128 µg/mL
SMILES: CC(c1ccccc1)C1NC(=O)CNC(=O)C(CO)NC(=O)C(C(O)C2CN(c3ncccn3)C(=N)N2C2OC(CO)C(O)C(O)C2O)NC(=O)C(C(O)C2CNC(=Nc3ncccn3)N2)NC(=O)C(Cc2ccc(OC3OC(CO)C(OC4OC(CO)C(O)C(O)C4O)C(O)C3O)cc2)NC1=O (stereo not drawn) [Example 92, Cyclo[glycyl-β-methylphenylalanyl-O-(4-O-hexolpyranosylhexopyranosyl)tyrosyl-3-[2-(pyrimidin-2-ylimino)imidazolidin-4-yl]seryl-3-[3-hexopyranosyl-2-imino-1-(pyrimidin-2-yl)imidazolidin-4-yl]serylseryl]]
MIC Staphylococcus haemolyticus (GC 4546) [3, 9]: >128 µg/mL | MIC Staphylococcus haemolyticus (GC 4546) ([3]; strain GC 4546; broth dilution, 18 hours at 35° C.): >128 µg/mL

MIC Streptococcus agalactiae (GC 4564) ([1]; Streptococcus agalactiae (GC 4564)): 2 µg/mL (≈ 1.41 µM) | MIC Streptococcus pneumoniae (GC 4565) ([1]; Streptococcus pneumoniae (GC 4565)): <0.5 µg/mL | MIC Streptococcus pyogenes (ID-3187) ([1]; Streptococcus pyogenes (ID-3187)): 1 µg/mL (≈ 0.703 µM) | MIC Streptococcus agalactiae (GC 4564) [1]: 2 µg/mL (≈ 1.41 µM) | MIC Streptococcus pneumoniae (GC 4565) [1]: <0.5 µg/mL | MIC Streptococcus pyogenes (ID-3187) [1]: 1 µg/mL (≈ 0.703 µM) | MIC Enterococcus avium (GC 4558) ([2]; Enterococcus avium (GC 4558)): 16 µg/mL (≈ 11.3 µM) | MIC Enterococcus faecalis (ATCC 29212) [2, 5]: 16 µg/mL (≈ 11.3 µM) | MIC Enterococcus faecalis (GC 2242) ([2]; Enterococcus faecalis (GC 2242)): 16 µg/mL (≈ 11.3 µM) | MIC Enterococcus faecalis (GC 4552) [2, 6]: 32 µg/mL (≈ 22.5 µM) | MIC Enterococcus faecalis (GC 4553) [2, 7]: 16 µg/mL (≈ 11.3 µM) | MIC Enterococcus faecalis (GC 4554) [2, 8]: 32 µg/mL (≈ 22.5 µM) | MIC Enterococcus faecium (GC 2243) ([2]; Enterococcus faecium (GC 2243)): 16 µg/mL (≈ 11.3 µM) | MIC Enterococcus faecium (GC 4556) ([2]; Enterococcus faecium (GC 4556)): 16 µg/mL (≈ 11.3 µM) | MIC Enterococcus faecium (GC 4557) ([2]; Enterococcus faecium (GC 4557)): 4 µg/mL (≈ 2.81 µM) | MIC Enterococcus avium (GC 4558) [2]: 16 µg/mL (≈ 11.3 µM) | MIC Enterococcus faecalis (ATCC 29212) [2]: 16 µg/mL (≈ 11.3 µM) | MIC Enterococcus faecalis (GC 2242) [2]: 16 µg/mL (≈ 11.3 µM) | MIC Enterococcus faecalis (GC 4552) [2]: 32 µg/mL (≈ 22.5 µM) | MIC Enterococcus faecalis (GC 4553) [2]: 16 µg/mL (≈ 11.3 µM) | MIC Enterococcus faecalis (GC 4554) [2]: 32 µg/mL (≈ 22.5 µM) | MIC Enterococcus faecium (GC 2243) [2]: 16 µg/mL (≈ 11.3 µM) | MIC Enterococcus faecium (GC 4556) [2]: 16 µg/mL (≈ 11.3 µM) | MIC Enterococcus faecium (GC 4557) [2]: 4 µg/mL (≈ 2.81 µM) | MIC Coagulase Negative Staphylococcus (GC 4547) [3, 9]: 4 µg/mL (≈ 2.81 µM) | MIC Coagulase Negative Staphylococcus (GC 4548) [3, 9]: 4 µg/mL (≈ 2.81 µM) | MIC Coagulase Negative Staphylococcus (GC 4549) [3, 9]: 2 µg/mL (≈ 1.41 µM) | MIC Coagulase Negative Staphylococcus (GC 4551) [3, 9]: 8 µg/mL (≈ 5.63 µM) | MIC Coagulase Negative Staphylococcus (ID-3941) [3, 9]: 2 µg/mL (≈ 1.41 µM) | MIC Staphylococcus aureus-SMITH (GC 4543) [3, 9]: 4 µg/mL (≈ 2.81 µM) | MIC Coagulase Negative Staphylococcus (GC 4547) ([3]; broth dilution, 18 hours at 35° C.; strain GC 4547): 4 µg/mL (≈ 2.81 µM) | MIC Coagulase Negative Staphylococcus (GC 4548) ([3]; broth dilution, 18 hours at 35° C.; strain GC 4548): 4 µg/mL (≈ 2.81 µM) | MIC Coagulase Negative Staphylococcus (GC 4549) ([3]; broth dilution, 18 hours at 35° C.; strain GC 4549): 2 µg/mL (≈ 1.41 µM) | MIC Coagulase Negative Staphylococcus (GC 4551) ([3]; broth dilution, 18 hours at 35° C.; strain GC 4551): 8 µg/mL (≈ 5.63 µM) | MIC Coagulase Negative Staphylococcus (ID-3941) ([3]; broth dilution, 18 hours at 35° C.; strain ID-3941): 2 µg/mL (≈ 1.41 µM) | MIC Staphylococcus aureus-SMITH (GC 4543) ([3]; broth dilution, 18 hours at 35° C.; strain SMITH GC 4543): 4 µg/mL (≈ 2.81 µM) | MIC Staphylococcus aureus (ATCC 29213) [3, 10]: 4 µg/mL (≈ 2.81 µM) | MIC Staphylococcus aureus (GC 1131) [3, 11]: 4 µg/mL (≈ 2.81 µM) | MIC Staphylococcus aureus (GC 4541) [3, 12]: 4 µg/mL (≈ 2.81 µM) | MIC Staphylococcus aureus (GC 4542) [3, 13]: 4 µg/mL (≈ 2.81 µM) | MIC Staphylococcus aureus (GC 4544) [3, 14]: 4 µg/mL (≈ 2.81 µM) | MIC Staphylococcus aureus (GC 4545) [3, 15]: 4 µg/mL (≈ 2.81 µM) | MIC Escherichia coli (ATCC 25922) [4]: >64 µg/mL
SMILES: CCCC(CCC)C(=O)OCC1OC(Oc2ccc(CC3NC(=O)C(C(C)c4ccccc4)NC(=O)CNC(=O)C(CO)NC(=O)C(C(O)C4CNC(=N)N4C4OC(CO)C(O)C(O)C4O)NC(=O)C(C(O)C4CNC(=N)N4)NC3=O)cc2)C(O)C(O)C1OC1OC(CO)C(O)C(O)C1O (stereo not drawn) [Example 99b, Cyclo[glycyl-β-methylphenylalanyl-O-[4-O-hexopyranosyl-6-O-(2-propylpentanoyl)hexopyranosyl]tyrosyl-3-(2-iminoimidazolidin-4-yl)seryl-3-(3-hexopyranosyl-2-iminoimidazolidin-4-yl)serylseryl]]
MIC Staphylococcus haemolyticus (GC 4546) [3, 9]: 4 µg/mL (≈ 2.81 µM) | MIC Staphylococcus haemolyticus (GC 4546) ([3]; broth dilution, 18 hours at 35° C.; strain GC 4546): 4 µg/mL (≈ 2.81 µM)
